In brackets after ≈: the same amount, converted by molar mass. Read-outs that look alike come from different tables or passages of the source.
How the values were obtained:
[1] = Visual solubility of free carbamathione in water and common organic solvents; type: physicochemical
Protocol: Initially, the solubility of free carbamathione was evaluated in water and in common organic solvents. The common organic solvents tested included dichloromethane (DCM), methanol, ethyl acetate, ethanol, acetonitrile, acetone, 2-propanol, and N,N-dimethylformamide.
For each solvent the solubility of carbamathione was assessed by weighing out 50 mg of carbamathione into a stoppered tube followed by the addition of 0.05 mL of the test solvent to the tube. The mixture underwent vigorous shaking for 1 minute, and was placed in a constant temperature device for 15 minutes at 25.0±0.5° C. If the carbamathione was not completely dissolved, vigorous shaking was repeated for 1 minute and then placed in a constant temperature device for an additional 15 minutes. If the carbamathione was not fully dissolved, additional solvent was added portion-wise until dissolution of carbamathione was observed. If complete dissolution was not observed, the solution was heated until the boiling point under stirring to verify the solubility at high temperature. The solvents were classified according to the visual solubility determined into the groups described in Table 6.

[2] = tested on: nucleus accumbens (NAc) and prefrontal cortex (PFC); details: intravenous administration, rats, Faiman et al., 2013; cited from earlier work
[3] = Solubility of free carbamathione in buffer by portion-wise addition of solid; type: physicochemical; details: thermodynamic from solid, read-out: Solubility TNX1001
Protocol: The solubility of free carbamathione was determined to be between 20 and 30 mg/mL, as 100 mg of free carbamathione dissolved completely in 5 mL of buffer, but a saturated solution was formed when a subsequent 50 mg aliquot of solid was added to the solution.
The solubility of free carbamathione was determined to be between 10 and 20 mg/mL, as 50 mg of free carbamathione dissolved completely in 5 mL of buffer, but a saturated solution was formed when a subsequent 50 mg aliquot of solid was added to the solution.

[4] = tested on: ALDH2; details: Faiman et al., 2013; cited from earlier work
[5] = tested on: high alcohol-drinking-1 (HAD1) rats; assay: 2-hour ethanol intake by adult male HAD1 rats after IP carbamathione; type: in vivo; details: IP 100, 200, 400 mg/kg, saline with 0.25% Tween 80 vehicle
Protocol: The efficacy of carbamathione in reducing ethanol intake of rats was assessed. Adult male alcohol-preferring rats (P rats) and high alcohol-drinking-1 (HAD1) rats (˜75 days of age at the start) were used in this study. These rats underwent an 8-week acquisition/acclimation period of concurrent free-choice access to 15% and 30% ethanol. Animals were initiated with 24-hour access, which was titrated down to 2 hours per day for 5 days (Monday-Friday)/week access. Ethanol access began at the beginning of the dark cycle (10:00 h) in a room maintained on a reverse dark-light cycle (10:00 h to 22:00 h lights out).
After the acquisition period, the animals underwent three weeks of testing. Four doses were tested: 0, 100, 200, and 400 mg/kg/day. Sterile isotonic (0.9% normal) saline with 0.25% Tween® 80 was used as the vehicle for all doses. Injection solutions were prepared approximately 1 hour prior to each administration.
The carbamathione solution was maintained at −20° C. until mixing the solutions each day. Adding the carboxyl-associated compound helped dissolve the carbamathione solid, which was pulverized by mortar and pestle with 50 μl Tween® 80, resulting in a pH of 3.5. […] Doses were calculated at 3 ml/kg to allow for injection volume of 1.5 ml per 500 g rat. […]
Data were analyzed by Dose, by Test Day, and 2-way mixed ANOVAs on each rat line, followed by Dunnett t-test planned comparisons.

For `CCN(CC)C(=O)SCC(NC(=O)CCC(N)C(=O)O)C(=O)NCC(=O)O` (centres unmarked) [carbamathione, S—(N,N-diethylcarbamoyl)glutathione], the “Solubility at HT” value ([1]; 2-Propanol, heated until the boiling point) was “No”, the “Solubility at HT” value ([1]; Acetone, heated until the boiling point) was “No” and the “Solubility at HT” value ([1]; Acetonitrile, heated until the boiling point) was “No”. The “Solubility at HT” value ([1]; Dichloromethane, heated until the boiling point) was “No”, the “Solubility at HT” value ([1]; Ethanol, heated until the boiling point) was “No” and the “Solubility at HT” value ([1]; Ethyl Acetate, heated until the boiling point) was “No”. The “Solubility at HT” value ([1]; Methanol, heated until the boiling point) was “No”, the “Solubility at HT” value ([1]; N,N-Dimethylformamide, heated until the boiling point) was “No” and the “Solubility at HT” value ([1]; Tetrahydrofuran, heated until the boiling point) was “No”. The “Solubility at HT” value ([1]; Water, heated until the boiling point (100° C.)) was “Dissolved”, the solubility in water ([1]; only at high temperature) was “sparingly soluble” and the “solubility in all of the common organic solvents” value ([1]; visual solubility) was “very slightly soluble”. For the same compound, the GABA [2] was “decreases”, the “dopamine (DA)” value [2] was “increases” and the “glutamate (Glu)” value [2] was “biphasic effect”. The solubility ([3]; aqueous buffer, pH 4.5, 25° C.) was 10 to 20 mg/mL (≈ 24.6 to 49.2 mM), the solubility ([3]; aqueous buffer, pH 6.8, 25° C.) was 20 to 30 mg/mL (≈ 49.2 to 73.8 mM) and the solubility ([3]; simulated gastric fluid, pH 1.2, 25° C.) was 25 to 33 mg/mL (≈ 61.5 to 81.2 mM). For the same compound, the “inhibitory activity of ALDH2” value [4] was “devoid of inhibitory activity” and the “effect on 2-hour ethanol intake” value [5] was “no effect”.

From US20220153780A1, “SALT FORMS OF S-(N, N-DIETHYLCARBAMOYL)GLUTATHIONE” (Tonix Pharma Holdings Limited, priority 2019, published 2022)
